Test results published in patent publication US20080075767A1, “IBUPROFEN-CONTAINING LIQUID FILLED HARD CAPSULES” (priority 2006, published 2008).
Read-outs that look alike come from different tables or passages of the source.

Legend:
[1] = Ibuprofen vehicle screening (single excipients); format: physicochemical; conditions: for Approx. Percentage of API that Resulted in Precipitate: ibuprofen USP in the excipient named, precipitate within approx. 24 h after cooling to room temperature, * = close to saturation point, only a few crystals
Description: Initially, ibuprofen United States Pharmacopeia grade (USP) powder was mixed at room temperature with individual excipients being considered as shown in Table 1. Ibuprofen was incrementally added and mixed until a precipitate was observed. […] Observations were made daily to determine if the mixture would remain a solution or precipitate out within an approximately 24 hour period.

[2] = Text: Different solvent systems such as oils and medium chain triglycerides, solubilizing agents, emulsifying agents (self-emulsifying) and surfactants for the liquid filled capsules were screened for their effectiveness in solubilizing ibuprofen and are listed in Tables 5 to 6.
The screening method involved the following steps:
2. Step T2: the sample was heated using a hot plate and stirrer to facilitate ibuprofen solubility in the vehicle and the samples were left overnight.
3. […] Additional ibuprofen was added by reheating selected T2 solutions until re-crystallization or precipitation was observed.
Observations on whether ibuprofen appeared as dissolved, a suspension (fine suspension) or crystallized (agglomerates) were reported.

[3] = Ibuprofen lysinate vehicle screening; conditions: ibuprofen lysinate (IBL) in the excipient named; outcome in Comments cell beside
[4] = Water activity (Rotronic Hygrolab); format: physicochemical; conditions: water activity at 19.56-19.87 °C

In the case of `OCC(O)CO` [Glycerin], the “Approx. Percentage of API that Resulted in Precipitate” value [1] is reported as 2.5%, the “Amt of API added” value [2] is reported as 250.0 mg and the Observation [2] is reported as “Turbid (T1)”. For the same compound, the “Approximate Percentage of IBL salt added in powder form to excipient and heated” value [3] was 2.2%.
For `CC(O)CO` (stereo not drawn) [Propylene Glycol], the “Approx. Percentage of API that Resulted in Precipitate” value [1] was 28 * %, the “Approx. Max. Percentage of API in Solution Tested” value ([1]; ibuprofen USP in the single excipient named, melted in on hot plate, remained in solution approx. 24 h) was 17% and the “Amt of API added” value ([2]; 24 h) was 4000.0 mg. For the same compound, the Observation ([2]; 24 h) was “Crystallized (T3)” and the “Approximate Percentage of IBL salt added in powder form to excipient and heated” value [3] was 2.4%.
For `O` [Water], the “AW Reading” value [4] was 0.999.
In the case of Castor Oil, the “Amt of API added” value [2] is reported as 257.8 mg and the Observation [2] is reported as “Solidify (T1)”.
